Assay results reported in ChEMBL document CHEMBL4699511, “Cedrol, a Sesquiterpene Alcohol, Enhances the Anticancer Efficacy of Temozolomide in Attenuating Drug Resistance via Regulation of the DNA Damage Response and MGMT Expression” (J Nat Prod, 2020).
Active and inactive are the calls of the source. The calls are words filed in the database; no cut-off is given here.

Legend:
RG2 [1] = test: Inhibition of AKT phosphorylation at S473 residues in rat RG2 cells at 206 uM after 48 hrs by Western blot analysis; assay type: cell-based
DBTRG-05MG [2] = test: Induction of cell cycle arrest in human DBTRG-05MG cells assessed as accumulation at G0/G1 phase at 206 uM after 6 hrs by propidium iodide staining based flow cytometric analysis (reference value: 47.16 +/- 1.55%); assay type: functional
RG2 [3] = test: Induction of cell cycle arrest in rat RG2 cells assessed as accumulation at G2/M phase at 206 uM after 6 hrs by propidium iodide staining based flow cytometric analysis (reference value: 20.04 +/- 0.55%); assay type: functional
RG2 [4] = test: Induction of cell cycle arrest in rat RG2 cells assessed as accumulation at G0/G1 phase at 206 uM after 48 hrs by propidium iodide staining based flow cytometric analysis (reference value: 57.81 +/- 1.9%); assay type: functional
DBTRG-05MG [5] = test: Induction of DNA damage in human DBTRG-05MG cells assessed as ATR phosphorylation at ser428 residues at 206 uM after 48 hrs by Western blot analysis (reference value: 1); assay type: functional
DBTRG-05MG [6] = test: Induction of apoptosis in human DBTRG-05MG cells assessed as phosphorylated PARP expression at 206 uM after 48 hrs by Western blot analysis (reference value: 1); assay type: functional
RG2 [7] = test: Induction of apoptosis in rat RG2 cells assessed as increase in apoptotic body formation at 206 uM after 48 hrs by TUNEL assay; assay type: functional, cell-based
RG2 [8] = test: Induction of cell cycle arrest in rat RG2 cells assessed as accumulation at S phase at 206 uM after 24 hrs by propidium iodide staining based flow cytometric analysis (reference value: 20.15 +/- 2.44%); assay type: functional
DBTRG-05MG [9] = test: Induction of cell cycle arrest in human DBTRG-05MG cells assessed as CDK2 expression at 112.4uM after 48 hrs in presence of TMZ by Western blot analysis (reference value: 1); assay type: functional
[10] = Effect of CD133 expression in human DBTRG-05MG cells at 112.4 uM after 48 hrs by Western blot analysis; assay type: functional
DBTRG-05MG [11] = test: Induction of cell cycle arrest in human DBTRG-05MG cells assessed as CDK4 expression at 112.4 uM after 48 hrs by Western blot analysis (reference value: 1); assay type: functional
RG2 [12] = test: Synergistic cytotoxicity against rat RG2 cells assessed as synergistic effect index at 89.9 uM after 48 hrs in presence of 515.1 uM TMZ by MTT assay; assay type: functional
RG2 [13] = test: Induction of cell cycle arrest in rat RG2 cells assessed as accumulation at G2/M phase at 112.4 uM after 48 hrs by propidium iodide staining based flow cytometric analysis (reference value: 20.04 +/- 0.55%); assay type: functional
RG2 [14] = test: Synergistic cytotoxicity against rat RG2 cells assessed as combination index at 89.9 uM after 48 hrs in presence of 309 uM TMZ by MTT assay; assay type: functional
[15] = Effect on JNK expression in human DBTRG-05MG cells at 112.4uM after 48 hrs in presence of TMZ by Western blot analysis (reference value: 1); assay type: functional
DBTRG-05MG [16] = test: Inhibition of JNK phosphorylation at Thr183/Tyr185 residues in human DBTRG-05MG cells at 112.4uM after 48 hrs in presence of TMZ by Western blot analysis (reference value: 1); assay type: cell-based
RG2 [17] = test: Induction of apoptosis in rat RG2 cells assessed as increase in DNA fragmentation at 112.4 uM after 48 hrs by TUNEL assay; assay type: functional, cell-based
[18] = Effect on JNK expression in human DBTRG-05MG cells at 112.4uM after 48 hrs by Western blot analysis (reference value: 1); assay type: functional
DBTRG-05MG [19] = test: Induction of apoptosis in human DBTRG-05MG cells assessed as Bcl2 expression at 112.4 uM after 48 hrs in presence of TMZ by Western blot analysis (reference value: 1); assay type: functional
DBTRG-05MG [20] = test: Potentiation of TMZ-induced antitumor activity against human DBTRG-05MG cells xenografted in BALB/c nude mouse assessed as reduction in tumor growth at 75 mg/kg, sc co-treated with TMZ for 18 days by PCNA staining-based bright field microscopic analysis; assay type: functional, organism-based; details: time 18.0 day
RG2 [21] = test: Inhibition of AKT phosphorylation at S473 residues in rat RG2 cells at 112.4uM after 48 hrs by Western blot analysis; assay type: cell-based
RG2 [22] = test: Induction of cell cycle arrest in rat RG2 cells assessed as CDK4 expression at 112.4 uM after 48 hrs in presence of TMZ by Western blot analysis (reference value: 1); assay type: functional
RG2 [23] = test: Induction of cell cycle arrest in rat RG2 cells assessed as accumulation at G2/M phase at 112.4 uM after 48 hrs in presence of TMZ by propidium iodide staining based flow cytometric analysis (reference value: 20.04 +/- 0.55%); assay type: functional
RG2 [24] = test: Inhibition of TMZ-induced drug resistance in rat RG2 cells assessed as reduction in MGMT protein expression at 112.4 uM after 48 hrs by Immunohistochemistry method; assay type: functional, cell-based
RG2 [25] = test: Synergistic cytotoxicity against rat RG2 cells assessed as synergistic effect index at 134.9 uM after 48 hrs in presence of 309 uM TMZ by MTT assay; assay type: functional
[26] = Toxicity in BALB/c mouse xenografted with DBTRG-05MG cells assessed as inflammatory cell infiltration score in liver at 5 mg/kg, ip for 5 days by H and E staining-based bright field microscopic analysis; assay type: organism-based; details: in vivo, 120 h, time 5 day
DBTRG-05MG [27] = test: Synergistic cytotoxicity against human DBTRG-05MG cells assessed as combination index at 89.9 uM after 48 hrs in presence of 412.1 uM TMZ by MTT assay; assay type: functional
DBTRG-05MG [28] = test: Induction of cell cycle arrest in human DBTRG-05MG cells assessed as CyclinB1 expression at 112.4 uM after 48 hrs in presence of TMZ by Western blot analysis (reference value: 1); assay type: functional
DBTRG-05MG [29] = test: Inhibition of TMZ-induced drug resistance in human DBTRG-05MG cells assessed as reduction in MGMT protein expression at 112.4 uM after 48 hrs by Immunohistochemistry method; assay type: functional, cell-based
RG2 [30] = test: Synergistic cytotoxicity against rat RG2 cells assessed as synergistic effect index at 89.9 uM after 48 hrs in presence of 309 uM TMZ by MTT assay; assay type: functional
[31] = Toxicity in BALB/c mouse xenografted with DBTRG-05MG cells assessed as reduction in body weight at 75 mg/kg, sc for 18 days co-treated with TMZ; assay type: organism-based; details: in vivo, 432 h, time 18 day
DBTRG-05MG [32] = test: Induction of apoptosis in human DBTRG-05MG cells assessed as phosphorylated PARP expression at 112.4 uM after 48 hrs in presence of TMZ by Western blot analysis (reference value: 1); assay type: functional
RG2 [33] = test: Induction of cell cycle arrest in rat RG2 cells assessed as accumulation at G0/G1 phase at 112.4 uM after 6 hrs by propidium iodide staining based flow cytometric analysis (reference value: 57.81 +/- 1.9%); assay type: functional
RG2 [34] = test: Inhibition of JNK phosphorylation at Thr183/Tyr185 residues in rat RG2 cells at 112.4uM after 48 hrs by Western blot analysis (reference value: 1); assay type: cell-based

## Cn1nnc2c(C(N)=O)ncn2c1=O [TEMOZOLOMIDE]
RG2 [1]
  fold change (FC): 0.5
DBTRG-05MG [2]
  Activity: 40.56%
RG2 [3]
  Activity: 20.81%
RG2 [4]
  Activity: 26.97%
DBTRG-05MG [5]
  fold change (FC): 1.5
DBTRG-05MG [6]
  fold change (FC): 0.4
RG2 [7]
  Activity: Active
RG2 [8]
  Activity: 15.48%

## C[C@@H]1CC[C@H]2C(C)(C)[C@H]3C[C@@]12CC[C@@]3(C)O [CEDROL]
DBTRG-05MG [9]
  fold change (FC): 0.7
[10]
  fold change (FC): 1.5
DBTRG-05MG [11]
  fold change (FC): 1
RG2 [12]
  Activity_index: 0.69
RG2 [13]
  Activity: 20.33%
RG2 [14]
  CI: 1.04
[15]
  fold change (FC): 0.4
DBTRG-05MG [16]
  fold change (FC): 0.8
RG2 [17]
  Activity: Active
[18]
  fold change (FC): 0.8
DBTRG-05MG [19]
  fold change (FC): 0.9
DBTRG-05MG [20]
  Activity: Active
RG2 [21]
  fold change (FC): 0.8
RG2 [22]
  fold change (FC): 0.5
RG2 [23]
  Activity: 35.71%
RG2 [24]
  inhibition: Active
RG2 [25]
  Activity_index: 0.89
[26]
  Activity: 2.38
DBTRG-05MG [27]
  CI: 0.8
DBTRG-05MG [28]
  fold change (FC): 0.7
DBTRG-05MG [29]
  inhibition: Active
RG2 [30]
  Activity_index: 0.72
[31]
  Activity: Non-Toxic
DBTRG-05MG [32]
  fold change (FC): 0.4
RG2 [33]
  Activity: 60.95%
RG2 [34]
  fold change (FC): 0.7
